Assay results reported in PMC11163866 (Journal of medicinal chemistry, 2024).

What was measured:
[1] = In vitro metabolic stability in human liver microsomes; assay type: in vitro ADME; conditions: 1 μM; 0.5 mg/mL microsomes; up to 60 min
[2] = In vitro metabolic stability in mouse liver microsomes; assay type: in vitro ADME; conditions: 1 μM; 0.5 mg/mL microsomes; up to 60 min

| metabolic stability (t1/2, min) vs HLM [1] [min] | metabolic stability (t1/2, min) vs MLM [2] [min] | Compound |
| --- | --- | --- |
| 52.1 | 8.20 | COC1=CC(c2ccc[nH]2)=N/C1=C\NC1CCCCCC1.Cl [compound 45] |
| 18.6 | 12.3 | COC1=CC(c2ccc[nH]2)=N/C1=C\NCC1CCCCCC1.Cl [compound 46, (Z)-1-Cycloheptyl-N-((4'-methoxy-1H,5'H-[2,2'-bipyrrol]-5'-ylidene)methyl)-methanamine Hydrochloride] |
| 13.0 | 15.4 | COC1=CC(c2ccc[nH]2)=N/C1=C\N[C@H]1CC[C@H](C(F)(F)F)CC1.Cl [compound 48, (1r,4r)-N-((Z)-(4'-Methoxy-1H,5'H-[2,2'-bipyrrol]-5'-ylidene)methyl)-4-(trifluoromethyl)cyclohexan-1-amine Hydrochloride] |
|  | 28.9 | COC1=CC(c2ccc[nH]2)=N/C1=C\Nc1ccc(C)cc1.Cl [compound 52, (Z)-N-((4'-Methoxy-1H,5'H-[2,2'-bipyrrol]-5'-ylidene)methyl)-4-methylaniline Hydrochloride] |
| > 60.0 | 45.1 | COC1=CC(c2ccc[nH]2)=N/C1=C\Nc1ccc(OC(F)(F)F)cc1.Cl [compound 54, (Z)-N-((4'-Methoxy-1H,5'H-[2,2'-bipyrrol]-5'-ylidene)methyl)-4-(trifluoromethoxy)aniline Hydrochloride] |
| > 60.0 | 42.0 | COC1=CC(c2ccc[nH]2)=N/C1=C\Nc1cccc(Cl)c1.Cl [compound 57, (Z)-3-Chloro-N-((4'-methoxy-1H,5'H-[2,2'-bipyrrol]-5'-ylidene)methyl)aniline Hydrochloride] |
| > 60.0 | 15.8 | COC1=CC(c2ccc[nH]2)=N/C1=C\Nc1cccc(OC(F)(F)F)c1.Cl [compound 58, (Z)-N-((4'-Methoxy-1H,5'H-[2,2'-bipyrrol]-5'-ylidene)methyl)-3-(trifluoromethoxy)aniline Hydrochloride] |
| 56.2 | 46.7 | COC1=CC(c2ccc[nH]2)=N/C1=C\Nc1ccc(Cl)c(Cl)c1.Cl [compound 60, (Z)-3,4-Dichloro-N-((4'-methoxy-1H,5'H-[2,2'-bipyrrol]-5'-ylidene)methyl)aniline Hydrochloride] |
| > 60.0 | > 60.0 | COC1=CC(c2ccc[nH]2)=N/C1=C\Nc1ccc(Cl)c(OC)c1.Cl [compound 61, (Z)-4-Chloro-3-methoxy-N-((4'-methoxy-1H,5'H-[2,2'-bipyrrol]-5'-ylidene)methyl)aniline Hydrochloride] |
| > 60.0 | 19.1 | COC1=CC(c2ccc[nH]2)=N/C1=C\Nc1ccc(F)c(OC)c1.Cl [compound 62, (Z)-4-Fluoro-3-methoxy-N-((4'-methoxy-1H,5'H-[2,2'-bipyrrol]-5'-ylidene)methyl)aniline Hydrochloride] |
| > 60.0 | 15.8 | COC1=CC(c2ccc[nH]2)=N/C1=C\Nc1ccc2c(c1)OCCO2.Cl [compound 63, (Z)-N-((4'-Methoxy-1H,5'H-[2,2'-bipyrrol]-5'-ylidene)methyl)-2,3-dihydrobenzo[b][1,4]dioxin-6-amine Hydrochloride] |
| > 60.0 | > 60.0 | Cl.FC(F)(F)Oc1ccc(OC2=CC(c3ccc[nH]3)=N/C2=C\NC23CC4CC(CC(C4)C2)C3)cc1 [compound 70, (3s,5s,7s)-N-((Z)-(4'-(4-(Trifluoromethoxy)phenoxy)-1H,5'H-[2,2'-bipyrrol]-5'-ylidene)methyl)adamantan-1-amine Hydrochloride] |
| > 60.0 | > 60.0 | Cl.Fc1cc(F)cc(OC2=CC(c3ccc[nH]3)=N/C2=C\NC23CC4CC(CC(C4)C2)C3)c1 [compound 74, (3s,5s,7s)-N-((Z)-(4'-(3,5-Difluorophenoxy)-1H,5'H-[2,2'-bipyrrol]-5'-ylidene)methyl)adamantan-1-amine Hydrochloride] |
| > 60 | > 60 | Cl.Clc1ccc(OC2=CC(c3ccc[nH]3)=N/C2=C\NC23CC4CC(CC(C4)C2)C3)cc1 [compound 77, (3s,5s,7s)-N-((Z)-(4'-(4-Chlorophenoxy)-1H,5'H-[2,2'-bipyrrol]-5'-ylidene)methyl)adamantan-1-amine Hydrochloride] |
| > 60.0 | > 60.0 | Cl.FC(F)(F)Oc1ccc(C2=CC(c3ccc[nH]3)=N/C2=C\NC23CC4CC(CC(C4)C2)C3)cc1 [compound 80, (3s,5s,7s)-N-((Z)-(4'-(4-(Trifluoromethoxy)phenyl)-1H,5'H-[2,2'-bipyrrol]-5'-ylidene)methyl)adamantan-1-amine Hydrochloride] |
| > 60.0 | 17.6 | CC1=C/C(=C\NC23CC4CC(CC(C4)C2)C3)N=C1c1ccc[nH]1.Cl [compound 88] |
| 45.1 | 11.2 | CC1=C(C)/C(=C/NC2CCCCCC2)N=C1c1ccc[nH]1.Cl [compound 90] |
| > 60.0 | 9.71 | C(/NC1CCCCCC1)=C1/N=C(c2ccc[nH]2)C2=C1CCCC2.Cl [compound 102] |
| > 60.0 | > 60.0 | C(/NCC1CCCCCC1)=C1/N=C(c2ccc[nH]2)C2=C1CCCC2.Cl [compound 104, (Z)-1-(3-(1H-Pyrrol-2-yl)-4,5,6,7-tetrahydro-1H-isoindol-1-ylidene)-N-(cycloheptylmethyl)methanamine Hydrochloride] |
| 42.1 | 31.2 | Cc1ccc(N/C=C2\N=C(c3ccc[nH]3)C3=C2CCCC3)cc1.Cl [compound 105, (Z)-N-((3-(1H-Pyrrol-2-yl)-4,5,6,7-tetrahydro-1H-isoindol-1-ylidene)methyl)-4-methylaniline Hydrochloride] |

| Compound | metabolic stability (t1/2, min) vs HLM [1] [min] | metabolic stability (t1/2, min) vs MLM [2] [min] |
| --- | --- | --- |
| CCCCCCN/C=C1\N=C(c2ccc[nH]2)C=C1OC.Cl [compound 42] | 17.1 | 10.2 |
| COC1=CC(c2ccc[nH]2)=N/C1=C\N[C@H]1CC[C@H](C)CC1.Cl [compound 47, (1r,4r)-N-((Z)-(4'-Methoxy-1H,5'H-[2,2'-bipyrrol]-5'-ylidene)methyl)-4-methylcyclohexan-1-amine Hydrochloride] | 17.3 | 11.4 |
| CCc1c[nH]c(C2=N/C(=C\NC3CCCCCC3)C(C)=C2C)c1.Cl [compound 113, (Z)-N-((4-Ethyl-3',4'-dimethyl-1H,5'H-[2,2'-bipyrrol]-5'-ylidene)methyl)cycloheptanamine Hydrochloride] | > 60.0 |  |
